Source: patent US11208400B2, “Substituted 6-(1H-pyrazol-1-yl)pyrimidin-4-amine derivatives and uses thereof” (Bayer Aktiengesellschaft, priority 2016, dated 2021)

Molecular target: T1, human Npt2a (Homo sapiens, UniProt Q06495)
T1 construct: expressed in transfected cells
T1 sequence (Q06495 1-639): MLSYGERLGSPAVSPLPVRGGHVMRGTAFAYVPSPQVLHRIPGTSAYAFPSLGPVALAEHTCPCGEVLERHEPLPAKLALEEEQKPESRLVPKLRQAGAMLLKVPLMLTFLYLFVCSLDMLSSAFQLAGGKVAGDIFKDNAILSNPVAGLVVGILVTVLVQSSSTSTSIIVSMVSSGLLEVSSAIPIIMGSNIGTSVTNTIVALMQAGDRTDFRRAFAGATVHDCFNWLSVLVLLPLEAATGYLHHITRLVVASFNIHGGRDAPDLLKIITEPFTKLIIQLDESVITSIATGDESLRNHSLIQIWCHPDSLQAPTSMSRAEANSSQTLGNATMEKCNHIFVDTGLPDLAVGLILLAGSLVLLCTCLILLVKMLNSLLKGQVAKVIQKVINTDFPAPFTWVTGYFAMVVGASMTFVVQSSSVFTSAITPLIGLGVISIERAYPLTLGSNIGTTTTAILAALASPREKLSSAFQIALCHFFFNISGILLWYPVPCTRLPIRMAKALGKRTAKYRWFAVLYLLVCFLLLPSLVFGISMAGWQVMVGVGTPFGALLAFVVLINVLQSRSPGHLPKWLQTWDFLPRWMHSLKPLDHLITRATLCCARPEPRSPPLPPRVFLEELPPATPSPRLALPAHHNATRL
Test: Npt2a activity cell based assay, membrane potential dye, CHO T-REx hNpt2a cells
Settings: doxycycline-induced, depolarization by sodium phosphate influx, average or median values if tested more than once
Summary of the method: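 Doxycycline-induced (0.5 μg/mL, 24 h) CHO T-REx cells were loaded with membrane potential dye in sodium-free NHE buffer (pH 7.4) and exposed to compound (50 μM–1 nM, 5 min, room temperature).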

SMILES	IC50
Cc1nn(-c2cc(Nc3c(C)c(-c4ccc(OC(F)(F)F)cc4)nn3CC3CC3)ncn2)c(C(C)(C)O)c1Cl [Example 290, 2-{4-chloro-1-[6-({1-(cyclopropylmethyl)-4-methyl-3-[4-(trifluoromethoxy)phenyl]-1H-pyrazol-5-yl}amino)pyrimidin-4-yl]-3-methyl-1H-pyrazol-5-yl}propan-2-ol]	170 nM
Cc1cc(C(C)(C)O)n(-c2cc(Nc3c(C)c(-c4ccc(OC(F)(F)F)cc4)nn3CC3CC3)ncn2)n1 [Example 291, 2-{1-[6-({1-(cyclopropylmethyl)-4-methyl-3-[4-(trifluoromethoxy)phenyl]-1H-pyrazol-5-yl}amino)pyrimidin-4-yl]-3-methyl-1H-pyrazol-5-yl}propan-2-ol]	110 nM
Cc1nn(-c2cc(Nc3c(C)c(-c4ccc(C(F)(F)F)cc4)nn3CC3CC3)ncn2)c(C)c1C(C)(C)O [Example 292, 2-{1-[6-({1-(cyclopropylmethyl)-4-methyl-3-[4-(trifluoromethyl)phenyl]-1H-pyrazol-5-yl}amino)pyrimidin-4-yl]-3,5-dimethyl-1H-pyrazol-4-yl}propan-2-ol]	240 nM
Cc1cc(C(C)(C)O)n(-c2cc(Nc3c(C)c(-c4ccc(C(F)(F)F)cc4)nn3CC3CC3)ncn2)n1 [Example 293, 2-{1-[6-({1-(cyclopropylmethyl)-4-methyl-3-[4-(trifluoromethyl)phenyl]-1H-pyrazol-5-yl}amino)pyrimidin-4-yl]-3-methyl-1H-pyrazol-5-yl}propan-2-ol]	570 nM
Cc1nn(-c2cc(Nc3c(C)c(-c4ccc(C(F)(F)F)cc4)nn3CC3CC3)ncn2)c(C(C)(C)O)c1Cl [Example 294, 2-{4-chloro-1-[6-({1-(cyclopropylmethyl)-4-methyl-3-[4-(trifluoromethyl)phenyl]-1H-pyrazol-5-yl}amino)pyrimidin-4-yl]-3-methyl-1H-pyrazol-5-yl}propan-2-ol]	1400 nM
Cc1nn(-c2cc(Nc3c(C)c(-c4ccc(F)cc4)nn3CC3CC3)ncn2)c(C)c1C(O)(C(F)(F)F)C(F)(F)F [Example 295, 2-[1-(6-{[1-(cyclopropylmethyl)-3-(4-fluorophenyl)-4-methyl-1H-pyrazol-5-yl]amino}pyrimidin-4-yl)-3,5-dimethyl-1H-pyrazol-4-yl]-1,1,1,3,3,3-hexafluoropropan-2-ol]	13 nM
CCc1c(Nc2cc(-n3nc(C)c(CN4CC(F)C4)c3C)ncn2)nn(C)c1-c1ccc(F)cc1 [Example 296, N-[4-ethyl-5-(4-fluorophenyl)-1-methyl-1H-pyrazol-3-yl]-6-{4-[(3-fluoroazetidin-1-yl)methyl]-3,5-dimethyl-1H-pyrazol-1-yl}pyrimidin-4-amine]	117 nM
CCc1c(Nc2cc(-n3nc(C)c(CN4CCN(C)CC4)c3C)ncn2)nn(C)c1-c1ccc(F)cc1 [Example 297, 6-{3,5-dimethyl-4-[(4-methylpiperazin-1-yl)methyl]-1H-pyrazol-1-yl}-N-[4-ethyl-5-(4-fluorophenyl)-1-methyl-1H-pyrazol-3-yl]pyrimidin-4-amine]	1430 nM
Cc1nn(-c2cc(Nc3c(C)c(-c4ccc(C#N)cc4)nn3C)ncn2)c(C)c1C(C)(C)O [Example 298, 4-[5-({6-[4-(2-hydroxypropan-2-yl)-3,5-dimethyl-1H-pyrazol-1-yl]pyrimidin-4-yl}amino)-1,4-dimethyl-1H-pyrazol-3-yl]benzonitrile]	17 nM
CCOC(=O)c1c(C)nn(-c2cc(Nc3nn(C)c(-c4ccc(C#N)cc4)c3C)ncn2)c1C [Example 299, ethyl 1-(6-{[5-(4-cyanophenyl)-1,4-dimethyl-1H-pyrazol-3-yl]amino}pyrimidin-4-yl)-3,5-dimethyl-1H-pyrazole-4-carboxylate]	5 nM
Cc1nn(-c2cc(Nc3nn(C)c(-c4ccc(C#N)cc4)c3C)ncn2)c(C)c1C(C)(C)O [Example 300, 4-[3-({6-[4-(2-hydroxypropan-2-yl)-3,5-dimethyl-1H-pyrazol-1-yl]pyrimidin-4-yl}amino)-1,4-dimethyl-1H-pyrazol-5-yl]benzonitrile]	88 nM
Cc1nn(-c2cc(Nc3c(C)nn(-c4ccc(C#N)cc4)c3C)ncn2)c(C)c1CC(C)(C)O [Example 301, 4-[4-({6-[4-(2-hydroxy-2-methylpropyl)-3,5-dimethyl-1H-pyrazol-1-yl]pyrimidin-4-yl}amino)-3,5-dimethyl-1H-pyrazol-1-yl]benzonitrile]	92 nM
Cc1nn(-c2cc(Nc3c(C)c(-c4ccc(F)cc4)nn3CC3CC3)ncn2)c(C)c1CC(C)(C)O [Example 302, 1-[1-(6-{[1-(cyclopropylmethyl)-3-(4-fluorophenyl)-4-methyl-1H-pyrazol-5-yl]amino}pyrimidin-4-yl)-3,5-dimethyl-1H-pyrazol-4-yl]-2-methylpropan-2-ol]	9 nM
CCOC(=O)c1c(Cl)c(C)nn1-c1cc(Nc2nn(C)c(-c3ccc(F)cc3)c2Cl)ncn1 [Example 303, ethyl 4-chloro-1-(6-{[4-chloro-5-(4-fluorophenyl)-1-methyl-1H-pyrazol-3-yl]amino}pyrimidin-4-yl)-3-methyl-1H-pyrazole-5-carboxylate]	47 nM
Cc1nn(-c2cc(Nc3nn(C)c(-c4ccc(F)cc4)c3Cl)ncn2)c(C(C)(C)O)c1Cl [Example 304, 2-[4-chloro-1-(6-{[4-chloro-5-(4-fluorophenyl)-1-methyl-1H-pyrazol-3-yl]amino}pyrimidin-4-yl)-3-methyl-1H-pyrazol-5-yl]propan-2-ol]	6 nM
Cc1cc(C)n(-c2cc(Nc3c(C)c(-c4ccc(C(F)F)cc4)nn3CC3CC3)ncn2)n1 [Example 305, N-{1-(cyclopropylmethyl)-3-[4-(difluoromethyl)phenyl]-4-methyl-1H-pyrazol-5-yl}-6-(3,5-dimethyl-1H-pyrazol-1-yl)pyrimidin-4-amine]	27 nM
Cc1cc(C)n(-c2cc(Nc3c(C)c(-c4ccc(C(F)(F)F)cc4)nn3CC3CC3)ncn2)n1 [Example 306, N-{1-(cyclopropylmethyl)-4-methyl-3-[4-(trifluoromethyl)phenyl]-1H-pyrazol-5-yl}-6-(3,5-dimethyl-1H-pyrazol-1-yl)pyrimidin-4-amine]	60 nM
Cc1cc(C(F)F)n(-c2cc(Nc3c(C)c(-c4ccc(C(F)(F)F)cc4)nn3CC3CC3)ncn2)n1 [Example 307, N-{1-(cyclopropylmethyl)-4-methyl-3-[4-(trifluoromethyl)phenyl]-1H-pyrazol-5-yl}-6-[5-(difluoromethyl)-3-methyl-1H-pyrazol-1-yl]pyrimidin-4-amine]	560 nM
Cc1cc(C)n(-c2cc(Nc3c(C)c(-c4ccc(OC(F)(F)F)cc4)nn3CC3CC3)ncn2)n1 [Example 308, N-{1-(cyclopropylmethyl)-4-methyl-3-[4-(trifluoromethoxy)phenyl]-1H-pyrazol-5-yl}-6-(3,5-dimethyl-1H-pyrazol-1-yl)pyrimidin-4-amine]	23 nM
Cc1cc(C(F)F)n(-c2cc(Nc3c(C)c(-c4ccc(OC(F)(F)F)cc4)nn3CC3CC3)ncn2)n1 [Example 309, N-{1-(cyclopropylmethyl)-4-methyl-3-[4-(trifluoromethoxy)phenyl]-1H-pyrazol-5-yl}-6-[5-(difluoromethyl)-3-methyl-1H-pyrazol-1-yl]pyrimidin-4-amine]	44 nM
Cc1nn(-c2cc(Nc3c(C)c(-c4ccc(OC(F)(F)F)cc4)nn3CC3CC3)ncn2)c(C)c1Cl [Example 310, 6-(4-chloro-3,5-dimethyl-1H-pyrazol-1-yl)-N-{1-(cyclopropylmethyl)-4-methyl-3-[4-(trifluoromethoxy)phenyl]-1H-pyrazol-5-yl}pyrimidin-4-amine]	21 nM
Cc1nn(-c2cc(Nc3c(C)c(-c4ccc(C(F)(F)F)cc4)nn3CC3CC3)ncn2)c(C)c1Cl [Example 311, 6-(4-chloro-3,5-dimethyl-1H-pyrazol-1-yl)-N-{1-(cyclopropylmethyl)-4-methyl-3-[4-(trifluoromethyl)phenyl]-1H-pyrazol-5-yl}pyrimidin-4-amine]	340 nM
Cc1cc(C)n(-c2cc(Nc3c(C)c(-c4ccc(Cl)cc4)nn3CC3CC3)ncn2)n1 [Example 312, N-[3-(4-chlorophenyl)-1-(cyclopropylmethyl)-4-methyl-1H-pyrazol-5-yl]-6-(3,5-dimethyl-1H-pyrazol-1-yl)pyrimidin-4-amine]	10 nM
Cc1cc(C(F)F)n(-c2cc(Nc3c(C)c(-c4ccc(Cl)cc4)nn3CC3CC3)ncn2)n1 [Example 313, N-[3-(4-chlorophenyl)-1-(cyclopropylmethyl)-4-methyl-1H-pyrazol-5-yl]-6-[5-(difluoromethyl)-3-methyl-1H-pyrazol-1-yl]pyrimidin-4-amine]	36 nM
CCOC(=O)c1c(C)nn(-c2cc(Nc3c(C)c(-c4ccc(Cl)cc4)nn3CC3CC3)ncn2)c1C [Example 314, ethyl 1-(6-{[3-(4-chlorophenyl)-1-(cyclopropylmethyl)-4-methyl-1H-pyrazol-5-yl]amino}pyrimidin-4-yl)-3,5-dimethyl-1H-pyrazole-4-carboxylate]	9 nM
COc1c(-c2ccc(F)cc2)nn(CC2CC2)c1Nc1cc(-n2nc(C)cc2C)ncn1 [Example 315, N-[1-(cyclopropylmethyl)-3-(4-fluorophenyl)-4-methoxy-1H-pyrazol-5-yl]-6-(3,5-dimethyl-1H-pyrazol-1-yl)pyrimidin-4-amine]	99 nM
